Results reported in ChEMBL document CHEMBL4396940, “Synthesis and biological evaluation of 4-(piperid-3-yl)amino substituted 6-pyridylquinazolines as potent PI3Kδ inhibitors” (Bioorg Med Chem, 2019).

Experiments:
SU-DHL-6 = experiment: Antiproliferative activity against human SUDHL6 cells by MTT assay; format: functional, cell-based
[1] = biological target: T1, Phosphatidylinositol 4,5-bisphosphate 3-kinase catalytic subunit delta isoform (Homo sapiens, UniProt O00329); experiment: Inhibition of PI3K delta (unknown origin) using phosphatidyl inositol as substrate measured after 60 mins in presence of ATP by Kinase-Glo Plus reagent-based luminescence assay
T1 sequence (O00329 whole entry): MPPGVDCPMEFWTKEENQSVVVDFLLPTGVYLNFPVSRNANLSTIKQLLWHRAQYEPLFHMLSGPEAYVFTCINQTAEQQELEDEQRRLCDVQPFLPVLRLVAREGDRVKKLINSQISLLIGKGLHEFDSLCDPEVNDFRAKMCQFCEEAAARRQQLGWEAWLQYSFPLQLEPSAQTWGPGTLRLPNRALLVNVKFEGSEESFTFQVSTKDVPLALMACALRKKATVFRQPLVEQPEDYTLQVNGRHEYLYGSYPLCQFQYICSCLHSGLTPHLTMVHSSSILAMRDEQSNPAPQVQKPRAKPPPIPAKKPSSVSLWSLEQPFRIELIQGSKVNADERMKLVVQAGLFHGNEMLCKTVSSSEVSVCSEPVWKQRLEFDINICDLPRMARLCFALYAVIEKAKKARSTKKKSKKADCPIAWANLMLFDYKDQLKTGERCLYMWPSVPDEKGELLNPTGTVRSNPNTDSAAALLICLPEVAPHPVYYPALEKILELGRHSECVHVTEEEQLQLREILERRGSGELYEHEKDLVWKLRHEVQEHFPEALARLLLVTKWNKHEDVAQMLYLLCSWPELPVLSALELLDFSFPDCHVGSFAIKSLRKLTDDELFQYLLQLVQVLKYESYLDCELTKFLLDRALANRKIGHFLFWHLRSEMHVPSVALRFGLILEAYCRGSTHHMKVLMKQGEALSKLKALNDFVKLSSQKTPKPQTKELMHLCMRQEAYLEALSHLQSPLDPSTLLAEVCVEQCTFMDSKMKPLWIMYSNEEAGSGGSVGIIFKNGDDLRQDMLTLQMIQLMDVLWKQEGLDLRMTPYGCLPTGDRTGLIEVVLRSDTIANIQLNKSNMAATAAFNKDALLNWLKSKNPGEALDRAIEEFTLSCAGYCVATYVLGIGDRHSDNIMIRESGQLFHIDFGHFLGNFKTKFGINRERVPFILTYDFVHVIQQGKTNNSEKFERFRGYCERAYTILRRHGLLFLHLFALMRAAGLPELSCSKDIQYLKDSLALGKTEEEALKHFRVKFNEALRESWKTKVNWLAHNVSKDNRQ

[2] = biological target: T1, Phosphatidylinositol 4,5-bisphosphate 3-kinase catalytic subunit delta isoform; experiment: Inhibition of PI3K delta (unknown origin)
Raji = experiment: Antiproliferative activity against human Raji cells by MTT assay; format: functional, cell-based
MCF7 = experiment: cells; conditions: Homo sapiens
Description: Antiproliferative activity against human MCF7 cells by MTT assay

[3] = biological target: Phosphatidylinositol 4,5-bisphosphate 3-kinase catalytic subunit beta isoform (Homo sapiens, UniProt P42338); experiment: Inhibition of PI3K beta (unknown origin) using phosphatidyl inositol as substrate measured after 60 mins in presence of ATP by Kinase-Glo Plus reagent-based luminescence assay
[4] = biological target: Phosphatidylinositol 4,5-bisphosphate 3-kinase catalytic subunit gamma isoform (Homo sapiens, UniProt P48736); experiment: Inhibition of PI3K gamma (unknown origin) using phosphatidyl inositol as substrate measured after 60 mins in presence of ATP by Kinase-Glo Plus reagent-based luminescence assay
Ramos = experiment: Antiproliferative activity against human Ramos cells by MTT assay; format: functional, cell-based
[5] = biological target: Phosphatidylinositol 4,5-bisphosphate 3-kinase catalytic subunit alpha isoform (Homo sapiens, UniProt P42336); experiment: Inhibition of PI3K alpha (unknown origin) using phosphatidyl inositol as substrate measured after 60 mins in presence of ATP by Kinase-Glo Plus reagent-based luminescence assay
HCT-116 = experiment: cells; conditions: Homo sapiens
Description: Antiproliferative activity against human HCT116 cells by MTT assay

[6] = biological target: T2, Phosphatidylinositol 4,5-bisphosphate 3-kinase catalytic subunit delta isoform (Homo sapiens) (UniProt O00329); experiment: Inhibition of PI3K delta in human SUDHL6 cells assessed as reduction in AKT phosphorylation at S473 measured after 8 hrs by Western blot analysis; format: cell-based
T2 sequence (whole entry): T1 sequence (O00329 whole entry)

Phosphatidylinositol 4,5-bisphosphate 3-kinase catalytic subunit beta isoform, sequence (P42338 whole entry, canonical isoform): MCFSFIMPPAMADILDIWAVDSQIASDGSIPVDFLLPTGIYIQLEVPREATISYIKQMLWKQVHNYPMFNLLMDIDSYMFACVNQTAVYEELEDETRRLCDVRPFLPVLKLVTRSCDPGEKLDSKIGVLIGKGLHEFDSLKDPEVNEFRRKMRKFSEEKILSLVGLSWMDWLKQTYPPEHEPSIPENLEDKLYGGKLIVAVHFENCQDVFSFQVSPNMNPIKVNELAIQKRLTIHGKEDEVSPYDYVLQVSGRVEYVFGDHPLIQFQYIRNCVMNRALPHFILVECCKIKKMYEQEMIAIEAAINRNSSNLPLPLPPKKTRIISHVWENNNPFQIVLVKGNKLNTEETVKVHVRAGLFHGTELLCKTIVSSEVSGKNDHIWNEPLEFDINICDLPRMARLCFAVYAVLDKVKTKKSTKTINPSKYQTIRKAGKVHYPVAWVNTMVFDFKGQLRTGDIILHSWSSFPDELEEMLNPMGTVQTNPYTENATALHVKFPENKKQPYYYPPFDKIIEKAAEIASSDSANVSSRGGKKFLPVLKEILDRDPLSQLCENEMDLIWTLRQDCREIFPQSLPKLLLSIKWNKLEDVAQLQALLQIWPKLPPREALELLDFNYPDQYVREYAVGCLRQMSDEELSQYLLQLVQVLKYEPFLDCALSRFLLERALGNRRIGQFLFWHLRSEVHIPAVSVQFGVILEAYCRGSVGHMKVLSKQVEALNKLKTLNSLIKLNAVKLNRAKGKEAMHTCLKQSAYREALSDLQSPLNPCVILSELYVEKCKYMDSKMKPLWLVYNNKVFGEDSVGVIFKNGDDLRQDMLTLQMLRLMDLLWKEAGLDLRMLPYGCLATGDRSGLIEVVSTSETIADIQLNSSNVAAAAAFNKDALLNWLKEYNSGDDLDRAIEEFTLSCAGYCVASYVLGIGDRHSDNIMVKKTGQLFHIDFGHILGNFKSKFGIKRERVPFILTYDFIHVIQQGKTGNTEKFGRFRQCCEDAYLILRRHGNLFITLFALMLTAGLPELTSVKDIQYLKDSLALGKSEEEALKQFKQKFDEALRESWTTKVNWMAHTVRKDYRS
Phosphatidylinositol 4,5-bisphosphate 3-kinase catalytic subunit gamma isoform, sequence (P48736 whole entry, canonical isoform): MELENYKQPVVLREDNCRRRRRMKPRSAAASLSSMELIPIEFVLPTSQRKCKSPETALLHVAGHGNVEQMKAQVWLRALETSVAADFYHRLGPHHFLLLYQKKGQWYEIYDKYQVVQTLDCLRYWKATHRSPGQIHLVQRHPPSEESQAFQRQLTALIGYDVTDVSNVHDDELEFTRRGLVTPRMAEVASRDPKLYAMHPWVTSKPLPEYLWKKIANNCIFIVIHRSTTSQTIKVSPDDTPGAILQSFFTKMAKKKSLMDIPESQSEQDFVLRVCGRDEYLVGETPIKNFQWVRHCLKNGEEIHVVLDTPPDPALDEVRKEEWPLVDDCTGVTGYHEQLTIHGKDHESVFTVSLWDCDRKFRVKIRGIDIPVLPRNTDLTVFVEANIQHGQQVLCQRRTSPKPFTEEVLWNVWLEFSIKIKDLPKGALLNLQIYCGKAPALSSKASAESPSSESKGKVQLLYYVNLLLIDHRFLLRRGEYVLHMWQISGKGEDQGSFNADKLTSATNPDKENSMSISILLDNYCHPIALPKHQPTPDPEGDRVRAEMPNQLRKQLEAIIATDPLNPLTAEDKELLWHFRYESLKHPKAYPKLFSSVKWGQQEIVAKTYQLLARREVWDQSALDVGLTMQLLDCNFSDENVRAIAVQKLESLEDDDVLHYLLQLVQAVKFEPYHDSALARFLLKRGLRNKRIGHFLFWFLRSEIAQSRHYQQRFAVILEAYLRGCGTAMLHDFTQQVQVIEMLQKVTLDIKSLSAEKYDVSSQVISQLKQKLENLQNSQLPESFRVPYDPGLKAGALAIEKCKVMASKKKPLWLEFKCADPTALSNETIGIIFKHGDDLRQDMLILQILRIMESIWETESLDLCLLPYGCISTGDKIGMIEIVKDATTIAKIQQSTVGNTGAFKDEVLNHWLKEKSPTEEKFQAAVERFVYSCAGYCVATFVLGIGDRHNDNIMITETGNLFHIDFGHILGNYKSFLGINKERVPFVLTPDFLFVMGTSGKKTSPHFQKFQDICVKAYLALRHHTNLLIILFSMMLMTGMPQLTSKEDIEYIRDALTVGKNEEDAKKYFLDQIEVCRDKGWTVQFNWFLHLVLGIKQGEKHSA
Phosphatidylinositol 4,5-bisphosphate 3-kinase catalytic subunit alpha isoform, sequence (P42336 whole entry, canonical isoform): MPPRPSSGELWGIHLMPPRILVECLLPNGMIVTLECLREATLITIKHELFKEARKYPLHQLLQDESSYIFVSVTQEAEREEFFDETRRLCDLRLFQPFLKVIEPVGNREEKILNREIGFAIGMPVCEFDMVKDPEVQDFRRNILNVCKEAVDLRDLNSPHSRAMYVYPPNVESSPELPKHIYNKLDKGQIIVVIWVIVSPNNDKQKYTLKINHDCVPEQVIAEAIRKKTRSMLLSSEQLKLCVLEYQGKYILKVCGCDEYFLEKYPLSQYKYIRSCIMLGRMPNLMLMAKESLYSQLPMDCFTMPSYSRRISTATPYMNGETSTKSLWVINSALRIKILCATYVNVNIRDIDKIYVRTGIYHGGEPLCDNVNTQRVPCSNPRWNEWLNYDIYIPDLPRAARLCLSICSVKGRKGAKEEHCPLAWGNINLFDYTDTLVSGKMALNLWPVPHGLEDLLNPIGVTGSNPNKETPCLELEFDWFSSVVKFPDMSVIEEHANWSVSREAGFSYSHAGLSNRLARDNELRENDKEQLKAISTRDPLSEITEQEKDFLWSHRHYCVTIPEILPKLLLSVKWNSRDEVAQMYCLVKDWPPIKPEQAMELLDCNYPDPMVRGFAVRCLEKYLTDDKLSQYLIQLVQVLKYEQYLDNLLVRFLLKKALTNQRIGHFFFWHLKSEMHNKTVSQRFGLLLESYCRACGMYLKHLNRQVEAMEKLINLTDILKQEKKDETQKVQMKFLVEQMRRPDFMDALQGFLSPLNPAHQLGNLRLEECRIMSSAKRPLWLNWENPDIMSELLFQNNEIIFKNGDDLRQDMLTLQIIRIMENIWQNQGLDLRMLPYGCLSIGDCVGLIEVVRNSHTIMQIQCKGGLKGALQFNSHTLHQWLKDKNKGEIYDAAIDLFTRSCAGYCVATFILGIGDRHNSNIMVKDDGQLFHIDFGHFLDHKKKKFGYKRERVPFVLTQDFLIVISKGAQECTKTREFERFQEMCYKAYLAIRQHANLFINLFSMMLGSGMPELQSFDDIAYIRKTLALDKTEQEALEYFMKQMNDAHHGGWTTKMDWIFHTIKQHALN

| SMILES | IC50 (SU-DHL-6) | IC50 [1] | IC50 (Raji) | IC50 (MCF7) | IC50 (Ramos) | IC50 (HCT-116) | further results |
| --- | --- | --- | --- | --- | --- | --- | --- |
| COc1ncc(-c2ccc3ncnc(N[C@H]4CCCN(C(=O)C5CCNCC5)C4)c3c2)cc1C#N | 2440 nM | 2.5 nM | – | – | – | – | – |
| COc1ncc(-c2ccc3ncnc(N[C@H]4CCCN(C(=O)C5CCN(C)CC5)C4)c3c2)cc1C#N | 420 nM | 9.4 nM | – | – | – | – | – |
| CCOC(=O)CN1CCC[C@H](Nc2ncnc3ccc(-c4cnc(OC)c(C#N)c4)cc23)C1 | 500 nM | 3.2 nM | – | – | – | – | – |
| COc1ncc(-c2ccc3ncnc(O[C@H]4CCN(C(=O)C5CCOCC5)C4)c3c2)cc1C#N | – | – | – | – | – | – | IC50 [2]: 4.9 nM |
| COc1ncc(-c2ccc3ncnc(N[C@H]4CCCN(CCO)C4)c3c2)cc1C#N | 2050 nM | 4.7 nM | – | – | – | – | – |
| COc1ncc(-c2ccc3ncnc(N[C@H]4CCCN(C(=O)[C@H](C)N)C4)c3c2)cc1C#N | 440 nM | 3.7 nM | > 10000 nM | > 10000 nM | > 10000 nM | > 10000 nM | IC50 [3]: 147 nM; IC50 [4]: 211 nM; IC50 [5]: 18.2 nM |
| Cn1c(=O)n(-c2ccc(C(C)(C)C#N)cc2)c2c3cc(-c4cnc5ccccc5c4)ccc3ncc21 [DACTOLISIB] | – | – | 520 nM | 200 nM | 400 nM | 300 nM | – |
| COc1ncc(-c2ccc3ncnc(N[C@H]4CCCN(C(=O)CCl)C4)c3c2)cc1C#N | 380 nM | 8.9 nM | – | – | – | – | – |
| COc1ncc(-c2ccc3ncnc(N[C@H]4CCCN(C(=O)C(F)(F)F)C4)c3c2)cc1[N+](=O)[O-] | 127000 nM | 27 nM | – | – | – | – | – |
| CCOC(=O)CN1CCC[C@H](Nc2ncnc3ccc(-c4cnc(OC)c(C(F)(F)F)c4)cc23)C1 | 230 nM | 6.8 nM | – | – | – | – | – |

Continued, in another order:

| IC50 (SU-DHL-6) | IC50 [1] | IC50 (Raji) | IC50 (MCF7) | IC50 (Ramos) | IC50 (HCT-116) | SMILES | further results |
| --- | --- | --- | --- | --- | --- | --- | --- |
| 15 nM | 14.3 nM | – | – | – | – | COc1ncc(-c2ccc3ncnc(N[C@H]4CCCN(C(=O)CCBr)C4)c3c2)cc1C#N | – |
| 33 nM | – | > 10000 nM | > 10000 nM | > 10000 nM | > 10000 nM | CC[C@H](Nc1ncnc2[nH]cnc12)c1nc2cccc(F)c2c(=O)n1-c1ccccc1 [IDELALISIB] | – |
| 210 nM | 3.2 nM | – | – | – | – | COc1ncc(-c2ccc3ncnc(N[C@H]4CCCN(C(=O)C(F)(F)F)C4)c3c2)cc1C#N | – |
| 120 nM | 0.7 nM | > 10000 nM | > 10000 nM | > 10000 nM | > 10000 nM | COc1ncc(-c2ccc3ncnc(N[C@H]4CCCN(C(=O)c5cccnc5)C4)c3c2)cc1C#N | IC50 [3]: 9.1 nM; inhibition [6]: Dose-dependent effect; IC50 [4]: 2 nM; IC50 [5]: 120 nM |
| 160 nM | 1.3 nM | > 10000 nM | > 10000 nM | > 10000 nM | > 10000 nM | COc1ncc(-c2ccc3ncnc(N[C@H]4CCCN(C(=O)CN(C)C)C4)c3c2)cc1C#N | IC50 [3]: 150 nM; IC50 [4]: 250 nM; IC50 [5]: 21.8 nM |
| 150 nM | 7.7 nM | – | – | – | – | COc1ncc(-c2ccc3ncnc(N[C@H]4CCCN(C(=O)C5CCOCC5)C4)c3c2)cc1C#N | – |
